According to patent publication US7452887B2, “Quinoline- and isoquinoline-based compounds exhibiting ATP-utilizing enzyme inhibitory activity, and compositions, and uses thereof” (Amphora Discovery Corporation, priority 2004, dated 2008):

Experiments:
Assay in all cases: HTS ATP-utilizing enzyme assay, off-chip mobility-shift (Caliper HTS 250)
Assay type in all cases: biochemical
Conditions in all cases: test compound 10 μM, kinase listed = active (greater than six-sigma from the mean activity of inactive compounds)
MAPKAPK2 = MAPKAPK2 (Homo sapiens, UniProt P49137)
Outline: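 Single-point screen of test compound at 10 μM against MAPKAPK2 with peptide substrate in HEPES pH 7.5 buffer (Triton X-100, BSA), 2.5 h at 20-22 °C. Substrate-to-phosphopeptide ratio was read by off-chip microfluidic mobility shift; EDTA and DMSO wells defined 100% and 0% controls, hits by six-sigma limits.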

PDGFR-α = PDGFR-α (Homo sapiens, UniProt P16234)
Outline: (§1)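 The ratio of peptide substrate to phosphorylated product, measured by microfluidic mobility shift, gave percent inhibition. Reactions contained enzyme, peptide substrate and compound at 10 μM in HEPES pH 7.5 buffer, ran 2.5 hrs at 20° C. to 22° C., and were quenched with EDTA.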

FLT-3 = molecular target: T1, FLT-3 (Homo sapiens, UniProt P36888)
T1 sequence (P36888 27-993): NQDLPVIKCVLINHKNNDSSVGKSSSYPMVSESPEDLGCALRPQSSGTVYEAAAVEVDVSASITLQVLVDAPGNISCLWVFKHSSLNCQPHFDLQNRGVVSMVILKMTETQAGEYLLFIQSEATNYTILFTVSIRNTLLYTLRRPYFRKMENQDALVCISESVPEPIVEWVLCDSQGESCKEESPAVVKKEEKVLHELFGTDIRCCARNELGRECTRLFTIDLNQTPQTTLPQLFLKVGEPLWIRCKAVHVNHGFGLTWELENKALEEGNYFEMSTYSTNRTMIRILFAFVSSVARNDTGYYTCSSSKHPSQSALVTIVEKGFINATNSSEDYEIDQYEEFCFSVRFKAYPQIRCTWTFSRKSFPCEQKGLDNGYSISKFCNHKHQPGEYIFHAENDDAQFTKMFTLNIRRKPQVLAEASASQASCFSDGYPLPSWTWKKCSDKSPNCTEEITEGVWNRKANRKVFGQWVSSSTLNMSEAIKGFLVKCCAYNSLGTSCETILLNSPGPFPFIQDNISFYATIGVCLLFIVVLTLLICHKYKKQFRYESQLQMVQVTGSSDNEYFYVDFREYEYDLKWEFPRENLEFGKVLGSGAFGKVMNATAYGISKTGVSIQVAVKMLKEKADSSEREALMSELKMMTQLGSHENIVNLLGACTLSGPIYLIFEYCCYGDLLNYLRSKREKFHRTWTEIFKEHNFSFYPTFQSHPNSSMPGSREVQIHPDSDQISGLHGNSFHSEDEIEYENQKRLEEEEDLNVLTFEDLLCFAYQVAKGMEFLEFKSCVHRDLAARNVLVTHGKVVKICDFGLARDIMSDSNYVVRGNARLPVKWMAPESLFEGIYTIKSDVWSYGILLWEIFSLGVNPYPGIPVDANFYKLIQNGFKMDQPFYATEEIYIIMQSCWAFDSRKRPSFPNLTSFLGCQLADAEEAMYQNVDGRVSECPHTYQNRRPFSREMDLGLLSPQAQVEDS
Outline: as §1

SRC = SRC (Homo sapiens, UniProt P12931)
Outline: as §1

ABL1 = ABL1 (Homo sapiens, UniProt P00519)
Outline: as §1

PRAK = molecular target: T2, PRAK (Homo sapiens, UniProt Q8IW41)
T2 sequence (Q8IW41 1-473): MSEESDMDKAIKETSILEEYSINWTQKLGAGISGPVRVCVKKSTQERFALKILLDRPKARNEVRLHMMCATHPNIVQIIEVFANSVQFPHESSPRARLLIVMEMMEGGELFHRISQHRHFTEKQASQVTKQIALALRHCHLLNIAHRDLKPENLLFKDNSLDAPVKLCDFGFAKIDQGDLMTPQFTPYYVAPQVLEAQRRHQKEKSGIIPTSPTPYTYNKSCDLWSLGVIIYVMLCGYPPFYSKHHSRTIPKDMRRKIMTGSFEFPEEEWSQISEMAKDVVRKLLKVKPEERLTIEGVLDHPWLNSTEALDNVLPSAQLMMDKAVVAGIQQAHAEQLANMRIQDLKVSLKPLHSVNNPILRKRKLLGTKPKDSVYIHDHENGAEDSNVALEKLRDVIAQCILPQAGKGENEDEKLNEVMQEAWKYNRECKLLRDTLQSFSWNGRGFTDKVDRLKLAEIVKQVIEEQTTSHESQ
Outline: as §1

AKT3 = AKT3 (Homo sapiens, UniProt Q9Y243)
Outline: as §1

LCK = LCK (Homo sapiens, UniProt P06239)
Outline: as §1

LYNA = LYNA (Homo sapiens, UniProt P07948)
Outline: as §1

NEK2 = molecular target: T3, NEK2 (Homo sapiens, UniProt P51955)
T3 sequence (P51955 1-445): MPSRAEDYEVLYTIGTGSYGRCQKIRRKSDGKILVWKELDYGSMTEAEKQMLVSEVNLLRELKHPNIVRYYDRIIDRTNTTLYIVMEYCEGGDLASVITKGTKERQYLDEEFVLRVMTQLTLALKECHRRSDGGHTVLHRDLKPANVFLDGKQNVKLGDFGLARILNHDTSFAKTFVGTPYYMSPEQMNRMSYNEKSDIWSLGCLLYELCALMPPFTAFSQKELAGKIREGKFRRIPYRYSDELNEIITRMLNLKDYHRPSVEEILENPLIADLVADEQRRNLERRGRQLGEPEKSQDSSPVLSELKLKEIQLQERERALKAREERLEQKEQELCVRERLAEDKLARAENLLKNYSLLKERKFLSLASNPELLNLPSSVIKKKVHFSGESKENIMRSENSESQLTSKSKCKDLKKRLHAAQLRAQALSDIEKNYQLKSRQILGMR
Outline: as §1

C-TAK1 = C-TAK1 (Homo sapiens, UniProt P27448)
Outline: as §1

BMX = molecular target: T4, BMX (Homo sapiens, UniProt P51813)
T4 sequence (P51813 1-675): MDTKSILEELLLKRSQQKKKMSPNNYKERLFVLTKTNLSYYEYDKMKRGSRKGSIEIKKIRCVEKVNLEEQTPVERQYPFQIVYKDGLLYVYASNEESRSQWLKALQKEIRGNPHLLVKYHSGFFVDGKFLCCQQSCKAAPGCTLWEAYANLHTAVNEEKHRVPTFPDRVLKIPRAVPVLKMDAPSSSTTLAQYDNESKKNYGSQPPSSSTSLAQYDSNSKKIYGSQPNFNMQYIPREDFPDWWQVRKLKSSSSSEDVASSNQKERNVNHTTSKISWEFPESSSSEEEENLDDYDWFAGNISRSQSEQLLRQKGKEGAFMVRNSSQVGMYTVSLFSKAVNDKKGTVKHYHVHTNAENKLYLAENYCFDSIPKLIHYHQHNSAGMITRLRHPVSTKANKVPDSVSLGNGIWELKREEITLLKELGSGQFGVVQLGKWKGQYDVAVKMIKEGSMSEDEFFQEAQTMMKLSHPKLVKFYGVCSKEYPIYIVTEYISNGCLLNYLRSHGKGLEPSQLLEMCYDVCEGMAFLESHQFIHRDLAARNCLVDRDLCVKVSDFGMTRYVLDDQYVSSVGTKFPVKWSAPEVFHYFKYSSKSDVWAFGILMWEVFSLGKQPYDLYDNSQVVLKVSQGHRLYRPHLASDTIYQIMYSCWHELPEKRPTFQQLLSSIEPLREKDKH
Outline: as §1

Chain of MAPKAPK2 (P49137 whole entry): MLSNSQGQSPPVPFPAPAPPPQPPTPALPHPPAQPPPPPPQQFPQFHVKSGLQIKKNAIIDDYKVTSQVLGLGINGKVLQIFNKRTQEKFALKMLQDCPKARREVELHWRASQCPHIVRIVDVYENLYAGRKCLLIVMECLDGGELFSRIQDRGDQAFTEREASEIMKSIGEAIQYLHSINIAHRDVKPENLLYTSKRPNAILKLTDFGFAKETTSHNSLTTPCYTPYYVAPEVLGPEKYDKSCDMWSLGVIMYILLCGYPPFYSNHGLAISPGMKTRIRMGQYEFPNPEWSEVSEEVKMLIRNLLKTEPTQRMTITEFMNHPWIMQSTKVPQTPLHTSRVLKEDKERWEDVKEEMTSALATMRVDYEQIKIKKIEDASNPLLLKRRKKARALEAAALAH
Chain of ABL1 (P00519 whole entry): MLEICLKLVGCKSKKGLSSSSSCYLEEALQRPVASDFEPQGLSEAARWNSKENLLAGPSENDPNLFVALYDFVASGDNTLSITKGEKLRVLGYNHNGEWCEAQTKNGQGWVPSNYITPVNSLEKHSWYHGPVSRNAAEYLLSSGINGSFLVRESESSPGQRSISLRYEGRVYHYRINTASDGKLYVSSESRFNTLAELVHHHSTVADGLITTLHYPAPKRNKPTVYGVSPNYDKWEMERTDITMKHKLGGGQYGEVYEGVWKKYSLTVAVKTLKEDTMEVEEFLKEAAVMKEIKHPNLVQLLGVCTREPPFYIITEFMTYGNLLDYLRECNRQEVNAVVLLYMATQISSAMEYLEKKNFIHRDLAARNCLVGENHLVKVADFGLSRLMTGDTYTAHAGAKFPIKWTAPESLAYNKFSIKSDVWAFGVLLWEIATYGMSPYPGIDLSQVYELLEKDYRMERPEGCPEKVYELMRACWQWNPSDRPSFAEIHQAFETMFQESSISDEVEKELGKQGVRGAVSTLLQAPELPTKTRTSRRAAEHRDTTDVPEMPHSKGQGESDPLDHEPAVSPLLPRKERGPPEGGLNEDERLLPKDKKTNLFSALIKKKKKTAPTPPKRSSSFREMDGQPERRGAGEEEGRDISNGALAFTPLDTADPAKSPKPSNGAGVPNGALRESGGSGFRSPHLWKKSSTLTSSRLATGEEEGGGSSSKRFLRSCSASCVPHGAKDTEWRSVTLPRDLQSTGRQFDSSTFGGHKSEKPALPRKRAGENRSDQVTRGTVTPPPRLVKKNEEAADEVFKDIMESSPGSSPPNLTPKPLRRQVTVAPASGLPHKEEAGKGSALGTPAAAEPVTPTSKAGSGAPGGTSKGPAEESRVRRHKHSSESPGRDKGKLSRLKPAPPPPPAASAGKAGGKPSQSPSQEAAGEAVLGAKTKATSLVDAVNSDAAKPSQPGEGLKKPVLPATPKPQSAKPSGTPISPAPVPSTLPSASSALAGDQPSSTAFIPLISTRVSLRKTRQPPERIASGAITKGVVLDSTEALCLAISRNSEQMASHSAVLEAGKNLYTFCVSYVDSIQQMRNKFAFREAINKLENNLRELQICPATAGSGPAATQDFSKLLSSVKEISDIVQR
Chain of C-TAK1 (P27448 whole entry): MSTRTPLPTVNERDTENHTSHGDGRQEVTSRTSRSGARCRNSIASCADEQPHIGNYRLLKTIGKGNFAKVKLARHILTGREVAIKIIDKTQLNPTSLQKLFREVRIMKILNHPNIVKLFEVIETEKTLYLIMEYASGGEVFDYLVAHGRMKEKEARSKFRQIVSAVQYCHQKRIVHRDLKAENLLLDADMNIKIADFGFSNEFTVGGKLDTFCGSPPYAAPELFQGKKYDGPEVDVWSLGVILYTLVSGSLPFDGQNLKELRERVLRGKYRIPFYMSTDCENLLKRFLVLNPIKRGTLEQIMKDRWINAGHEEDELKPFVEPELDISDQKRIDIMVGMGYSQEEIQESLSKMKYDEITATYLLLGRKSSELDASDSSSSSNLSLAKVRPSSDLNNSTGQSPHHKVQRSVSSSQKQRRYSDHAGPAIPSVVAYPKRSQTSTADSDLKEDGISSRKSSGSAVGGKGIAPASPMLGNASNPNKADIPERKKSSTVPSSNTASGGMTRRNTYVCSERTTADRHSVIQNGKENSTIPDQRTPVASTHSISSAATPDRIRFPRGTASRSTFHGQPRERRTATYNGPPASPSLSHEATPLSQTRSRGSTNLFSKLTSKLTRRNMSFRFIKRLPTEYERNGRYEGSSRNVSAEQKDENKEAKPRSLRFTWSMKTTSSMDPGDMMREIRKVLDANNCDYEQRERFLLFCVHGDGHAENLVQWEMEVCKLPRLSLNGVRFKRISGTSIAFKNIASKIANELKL
Chain of SRC (P12931 whole entry): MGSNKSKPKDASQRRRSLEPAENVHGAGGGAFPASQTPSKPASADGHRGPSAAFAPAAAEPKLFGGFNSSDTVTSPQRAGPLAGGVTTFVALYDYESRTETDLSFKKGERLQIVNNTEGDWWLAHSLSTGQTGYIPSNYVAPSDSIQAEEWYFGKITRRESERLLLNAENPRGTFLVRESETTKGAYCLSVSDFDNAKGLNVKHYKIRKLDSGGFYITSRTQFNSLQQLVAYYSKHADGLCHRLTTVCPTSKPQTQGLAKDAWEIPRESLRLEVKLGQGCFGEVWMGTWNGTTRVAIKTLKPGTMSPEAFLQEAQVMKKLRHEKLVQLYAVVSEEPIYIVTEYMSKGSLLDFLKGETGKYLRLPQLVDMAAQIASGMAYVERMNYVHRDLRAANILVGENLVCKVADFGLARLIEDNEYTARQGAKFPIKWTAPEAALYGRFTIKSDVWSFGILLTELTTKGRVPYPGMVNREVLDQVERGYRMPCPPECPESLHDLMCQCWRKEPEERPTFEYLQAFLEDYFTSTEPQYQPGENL
Chain of PDGFR-α (P16234 24-1089): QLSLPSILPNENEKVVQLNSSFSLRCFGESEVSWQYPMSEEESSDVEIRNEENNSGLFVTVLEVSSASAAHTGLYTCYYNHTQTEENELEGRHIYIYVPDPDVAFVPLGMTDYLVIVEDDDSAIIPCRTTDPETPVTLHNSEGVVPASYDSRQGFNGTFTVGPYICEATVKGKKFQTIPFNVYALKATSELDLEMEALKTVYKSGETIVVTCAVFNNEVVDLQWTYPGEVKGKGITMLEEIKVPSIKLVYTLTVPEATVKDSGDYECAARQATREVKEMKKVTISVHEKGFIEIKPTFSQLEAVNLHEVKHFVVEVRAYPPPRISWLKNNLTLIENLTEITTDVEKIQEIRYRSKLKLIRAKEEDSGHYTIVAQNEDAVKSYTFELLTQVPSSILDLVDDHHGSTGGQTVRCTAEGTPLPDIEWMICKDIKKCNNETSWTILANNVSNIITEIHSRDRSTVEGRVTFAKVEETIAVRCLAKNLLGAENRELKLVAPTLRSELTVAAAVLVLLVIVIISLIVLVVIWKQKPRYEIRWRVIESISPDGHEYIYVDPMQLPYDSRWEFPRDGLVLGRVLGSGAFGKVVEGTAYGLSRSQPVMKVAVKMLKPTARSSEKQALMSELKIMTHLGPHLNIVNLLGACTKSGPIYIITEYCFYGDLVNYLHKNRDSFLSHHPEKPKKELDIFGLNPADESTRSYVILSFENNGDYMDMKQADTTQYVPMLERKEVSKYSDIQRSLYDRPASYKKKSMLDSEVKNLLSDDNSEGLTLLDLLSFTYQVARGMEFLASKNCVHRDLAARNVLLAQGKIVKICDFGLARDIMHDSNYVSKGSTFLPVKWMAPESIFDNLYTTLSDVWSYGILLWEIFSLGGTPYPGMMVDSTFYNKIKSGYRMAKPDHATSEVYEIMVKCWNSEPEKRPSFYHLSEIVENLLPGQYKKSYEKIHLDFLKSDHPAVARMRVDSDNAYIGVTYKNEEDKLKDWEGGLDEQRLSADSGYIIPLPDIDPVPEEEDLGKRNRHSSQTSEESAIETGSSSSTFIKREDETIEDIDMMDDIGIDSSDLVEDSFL
Chain of LCK (P06239 whole entry): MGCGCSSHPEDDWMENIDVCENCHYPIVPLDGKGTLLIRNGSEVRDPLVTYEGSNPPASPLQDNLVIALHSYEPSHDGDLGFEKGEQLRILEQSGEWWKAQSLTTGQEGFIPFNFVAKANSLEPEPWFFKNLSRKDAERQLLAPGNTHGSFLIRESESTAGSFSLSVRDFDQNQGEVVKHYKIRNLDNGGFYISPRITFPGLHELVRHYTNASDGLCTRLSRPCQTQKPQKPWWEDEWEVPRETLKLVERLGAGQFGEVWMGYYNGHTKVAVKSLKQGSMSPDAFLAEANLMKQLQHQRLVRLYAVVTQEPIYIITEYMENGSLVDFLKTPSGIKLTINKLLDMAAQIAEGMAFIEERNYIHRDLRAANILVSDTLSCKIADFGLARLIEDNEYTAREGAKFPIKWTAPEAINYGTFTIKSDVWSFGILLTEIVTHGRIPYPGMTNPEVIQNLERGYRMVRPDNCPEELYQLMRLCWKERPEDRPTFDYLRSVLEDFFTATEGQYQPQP
Chain of LYNA (P07948 whole entry): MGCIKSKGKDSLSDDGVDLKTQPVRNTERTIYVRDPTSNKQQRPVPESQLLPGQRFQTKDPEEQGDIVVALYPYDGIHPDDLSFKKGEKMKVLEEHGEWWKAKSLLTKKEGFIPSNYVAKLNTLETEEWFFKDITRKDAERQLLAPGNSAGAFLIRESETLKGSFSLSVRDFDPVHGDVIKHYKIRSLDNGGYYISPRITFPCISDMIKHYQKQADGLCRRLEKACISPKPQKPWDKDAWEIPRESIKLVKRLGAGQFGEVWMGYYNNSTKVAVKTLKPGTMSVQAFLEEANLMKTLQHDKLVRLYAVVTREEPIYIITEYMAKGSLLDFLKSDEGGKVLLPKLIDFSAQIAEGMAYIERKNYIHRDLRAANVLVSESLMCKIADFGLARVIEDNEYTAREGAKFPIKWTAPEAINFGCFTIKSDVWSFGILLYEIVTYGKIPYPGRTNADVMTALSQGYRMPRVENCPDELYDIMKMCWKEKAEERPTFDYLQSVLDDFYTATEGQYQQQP

| Activity (MAPKAPK2) | Activity (SRC) | Activity (ABL1) | Activity (PRAK) | Activity (C-TAK1) | SMILES | other results |
| --- | --- | --- | --- | --- | --- | --- |
| MAPKAPK2 |  |  |  |  | O=C(O)CN1CCN(c2ccc(Nc3ccnc4ccc(-c5ccccc5)cc34)cc2)CC1 [2-(4-(4-(6-phenylquinolin-4-ylamino)phenyl)piperazin-1-yl)acetic acid] | Activity (PDGFR-α): PDGFR-α; Activity (FLT-3): FLT-3 |
| MAPKAPK2 |  |  |  |  | COc1ccc(-c2ccc3nccc(Nc4ccc(N5CCN(CC(=O)O)CC5)cc4)c3c2)cc1 [2-(4-(4-(6-(4-methoxyphenyl)quinolin-4-ylamino)phenyl)piperazin-1-yl)acetic acid] | Activity (PDGFR-α): PDGFR-α |
| MAPKAPK2 | SRC | ABL1 | PRAK |  | CN1CCN(c2ccc(Nc3ccnc4ccc(-c5cccc(O)c5)cc34)cc2)CC1 [3-(4-(4-(4-methylpiperazin-1-yl)phenylamino)quinolin-6-yl)phenol] | Activity (AKT3): AKT3; Activity (LCK): LCK |
|  |  | ABL | PRAK |  | CN1CCN(c2ccc(Nc3ccnc4ccc(-c5ccccc5-c5ccccc5)cc34)cc2)CC1 [6-(biphenyl-2-yl)-N-(4-(4-methylpiperazin-1-yl)phenyl)quinolin-4-amine] | Activity (LCK): LCK; Activity (LYNA): LYNA; Activity (NEK2): NEK2 |
| MAPKAPK2 |  |  | PRAK | C-TAK1 | CN1CCN(c2ccc(Nc3ccnc4ccc(-c5cccc(Cl)c5Cl)cc34)cc2)CC1 [6-(2,3-dichlorophenyl)-N-(4-(4-methylpiperazin-1-yl)phenyl)quinolin-4-amine] | Activity (LYNA): LYNA |
|  | SRC |  |  | C-TAK1 | CN1CCN(c2ccc(Nc3ccnc4ccc(-c5ccc(OCc6ccccc6)cc5)cc34)cc2)CC1 [6-(4-(benzyloxy)phenyl)-N-(4-(4-methylpiperazin-1-yl)phenyl)quinolin-4-amine] | Activity (BMX): BMX |
| MAPKAPK2 | SRC |  |  | C-TAK1 | CN1CCN(c2ccc(Nc3ccnc4ccc(-c5cc6ccccc6s5)cc34)cc2)CC1 [6-(benzo[b]thiophen-2-yl)-N-(4-(4-methylpiperazin-1-yl)phenyl)quinolin-4-amine] |  |
| MAPKAPK2 |  | ABL1 | PRAK |  | CN1CCN(c2ccc(Nc3ccnc4ccc(-c5csc6ccccc56)cc34)cc2)CC1 [6-(benzo[b]thiophen-3-yl)-N-(4-(4-methylpiperazin-1-yl)phenyl)quinolin-4-amine] |  |
